Results reported in patent EP2874610B1, “MULTILAYERED PHARMACEUTICAL FORMULATION” (Recordati Industria Chimica E Farmaceutica SPA, priority 2012, dated 2014).

What was measured:
[1] = In vivo study: plasma levels after single dose of three layer tablet in fasting and fed conditions, randomized cross-over, HPLC/MS/MS; settings: for AUC(0-inf): AUCinf; for time plasma levels were maintained at plateau: three layer tablet of example 4, Figure 6
Experimental: A three layer tablet of gabapentin 375 mg and flurbiprofen 37.5 mg, prepared as described in example 4, was administered to 24 healthy male and female subjects, 18-55 years old, in fasting conditions and after a high fat meal in single dose according to a randomized cross-over design. The treatment periods were separated by a wash out interval of at least 5 days.
Each dose was taken with 240 mL of water in fasting conditions from at least 10 hours or 30 minutes after a standardized meal, which was high-caloric (approximately 1000 Kcal) and high-fat (approximately 50 percent of total caloric content of the meal).
Gabapentin and flurbiprofen plasma levels were determined by a validated HPLC/MS/MS analytical method at the following times: pre-dose, 0.5, 1, 1.5, 2, 3, 4, 5, 6, 7, 8, 10, 12, 16, 24 and 32 h post-dose.

[2] = Dissolution test by immersion into simulated gastric fluid (USP apparatus II), then pH raised to 7.2; format: physicochemical
Experimental: The dissolution profile of the trilayered tablets prepared as described in examples 1, 2 and 3 was determined by immersion into simulated gastric fluid (USP apparatus II for dissolution test).
After immersion, the tablets (n = 6) placed themselves on the bottom of the vessel and the development of CO2 bubbles which remained entrapped into the hydroxypropylmethylcellulose gel formed in contact with the aqueous medium was observed from layer A. At the same time, layer B rapidly disintegrated in correspondence with the side surface of the layer exposed to the simulated gastric fluid.
The dissolution profile of the trilayered tablets prepared as described in examples 6, and 7 was determined by immersion into simulated gastric fluid (USP apparatus II for dissolution test).

[3] = Dissolution rate under simulated fasting and fed conditions (SGF pH 1.2, FaSSGF pH 1.6, FeSSGFm pH 5.0); format: physicochemical; settings: tablets of example 2
Experimental: The dissolution rate of trilayered tablets prepared as described in example 2, was evaluated also under simulated fasting and fed conditions. The evaluation was carried out under the following conditions: simulated gastric fluid at pH1.2 (SGF), simulated gastric fluid at pH 1.6 (FaSSGF) for fasting conditions and simulated gastric fluid at pH 5.0 (FeSSGFm) for fed conditions.

[4] = both, human, in vivo, Fed conditions (high fat meal), three layer tablet of example 4, single dose, arithmetic mean ± s.d., n=24
[5] = three layer tablet of example 4, single dose

Work on `NCC1(CC(=O)O)CCCCC1` [gabapentin] yielded an AUC(0-inf) ([1]; both, human, in vivo, Fasting conditions, three layer tablet of example 4, single dose, arithmetic mean ± s.d., n=24) of 24100 ± 8150 ng·h/mL, an AUC(0-inf) [1, 4] of 39200 ± 9070 ng·h/mL and a Cmax ([1]; both, human, in vivo, Fasting conditions, three layer tablet of example 4 (gabapentin 375 mg, flurbiprofen 37.5 mg), single dose, arithmetic mean ± s.d., n=24) of 2340 ± 748 ng/mL. For the same compound, the Cmax [1, 4] was 3080 ± 727 ng/mL, the Tmax ([1]; both, human, in vivo, Fasting conditions, three layer tablet of example 4, single dose, median (min - max), n=24) was 4 h and the Tmax ([1]; both, human, in vivo, Fed conditions (high fat meal), three layer tablet of example 4, single dose, median (min - max), n=24) was 5 h. The “time plasma levels were maintained at plateau” value ([1]; fasting conditions) was “about 4 hours”, the “time plasma levels were maintained at plateau” value ([1]; fed conditions) was 8 h and the “Ratio of geometric means, AUCinf, Test / Reference (Fed / fasting)” value [1, 5] was 167%. The “Ratio of geometric means, Cmax, Test / Reference (Fed / fasting)” value [1, 5] was 136%, the “release time of gabapentin contained in layer B” value (shortened to “release time … in layer B”) ([2]; tablets of example 1) was ≤ 5 min and the “release time of remaining dose of gabapentin contained in layer A” value (“release time of remaining dose … in layer A” for short) ([2]; tablets of example 1, slow prolonged release) was “about 8 hours”. For the same compound, the “release time … in layer B” value ([2]; tablets of example 2) was ≤ 15 min, the “release time of remaining dose … in layer A” value ([2]; tablets of example 2, slow prolonged release) was “about 9 hours” and the “release time … in layer B” value ([2]; tablets of example 3) was ≤ 15 min. The “release time of remaining dose … in layer A” value ([2]; tablets of example 3, slow prolonged release) was “about 9 hours”, the “release time … in layer B” value ([2]; tablets of example 6) was ≤ 15 min and the “release of remaining dose of gabapentin contained in layer A” value ([2]; tablets of example 6, in about 9 hours, slow prolonged release) was 90%. The “release time … in layer B” value ([2]; tablets of example 7) was ≤ 15 min, the “release time of remaining dose … in layer A” value ([2]; tablets of example 7, slow prolonged release) was “about 9 hours” and the “f2 factor, similarity index between SGF and FaSSGF release profiles” value ([3]; pH 1.2 vs pH 1.6) was 83. The “f2 factor, similarity index between SGF and FeSSGFm release profiles” value ([3]; pH 1.2 vs pH 5.0) was 65.8, the “f2 factor, similarity index between FaSSFG and FeSSGFm release profiles” value ([3]; pH 1.6 vs pH 5.0) was 55.7 and the “comparison of dissolution profiles in SGF, FaSSGF and FeSSGFm” value ([3]; result in words) was “did not show significant differences”.

In the case of `CC(C(=O)O)c1ccc(-c2ccccc2)c(F)c1` (stereo not shown) [flurbiprofen], the “Ratio of geometric means, AUCinf, Test / Reference (Fed / fasting)” value ([1]; both, human, in vivo) is reported as 98%, the “Ratio of geometric means, Cmax, Test / Reference (Fed / fasting)” value ([1]; both, human, in vivo) is reported as 157% and the “time after intake up to which release was very low” value ([1]; both, human, in vivo) is reported as “up to 2 hours”. For the same compound, the “time post dose at which plasma levels reached a plateau” value ([1]; both, human, in vivo) was “around 4 hour”, the AUC(0-inf) ([1]; both, human, in vivo) was 35700 ± 13200 ng·h/mL and the Tmax ([1]; both, human, in vivo) was 12 h. For the same compound, the “release of flurbiprofen contained in layer C in simulated gastric fluid” value (“release … in simulated gastric fluid” for short) ([2]; tablets of example 1, before raising the pH) was “not released in the first hour”, the “release of flurbiprofen contained in layer C after having raised the pH to 7.2” value (shortened to “release of flurbiprofen contained … to 7.2”) ([2]; tablets of example 1, in 5 hours, linear release) was 100% and the “release of flurbiprofen contained … to 7.2” value ([2]; tablets of example 2, in 6 hours, linear release) was 90%. For the same compound, the “release … in simulated gastric fluid” value ([2]; tablets of example 2, pH 1.2) was “not released at pH 1.2”, the “release of flurbiprofen contained … to 7.2” value ([2]; tablets of example 3, in 6 hours, linear release) was 90% and the “release … in simulated gastric fluid” value ([2]; tablets of example 3, pH 1.2) was “not released at pH 1.2”. The “release … in simulated gastric fluid” value ([2]; tablets of example 6, before raising the pH) was “not released in the first hour”, the “release of flurbiprofen contained … to 7.2” value ([2]; tablets of example 6, in 5 hours) was 100% and the “release of flurbiprofen contained … to 7.2” value ([2]; tablets of example 7, in 7 hours, linear release) was 90%. The “release … in simulated gastric fluid” value ([2]; tablets of example 7, pH 1.2) was “not released at pH 1.2”.
